# Activity calls are given as the source filed them. The rule behind the calls is not given here.
# Key:
# [1] = GPCRScan assay: inhibition of GABA/PBR; design: species or system Rattus norvegicus; radioligand conc. used [nm] 0.3 – 2.0, parental cells brain tissue
# [2] = target: Alpha-1A adrenergic receptor (Homo sapiens, UniProt P35348); assay: GPCRScan assay: inhibition of Alpha1A; design: radioligand conc. used [nm] 0.2 - 1.0, parental cells stable HEK
# [3] = target: Serine/threonine-protein kinase DCLK2 (Homo sapiens) (UniProt Q8N568); conditions: Compound concentration 1000.0 nM
# Sequence of Serine/threonine-protein kinase DCLK2 (Homo sapiens) (Q8N568 whole entry): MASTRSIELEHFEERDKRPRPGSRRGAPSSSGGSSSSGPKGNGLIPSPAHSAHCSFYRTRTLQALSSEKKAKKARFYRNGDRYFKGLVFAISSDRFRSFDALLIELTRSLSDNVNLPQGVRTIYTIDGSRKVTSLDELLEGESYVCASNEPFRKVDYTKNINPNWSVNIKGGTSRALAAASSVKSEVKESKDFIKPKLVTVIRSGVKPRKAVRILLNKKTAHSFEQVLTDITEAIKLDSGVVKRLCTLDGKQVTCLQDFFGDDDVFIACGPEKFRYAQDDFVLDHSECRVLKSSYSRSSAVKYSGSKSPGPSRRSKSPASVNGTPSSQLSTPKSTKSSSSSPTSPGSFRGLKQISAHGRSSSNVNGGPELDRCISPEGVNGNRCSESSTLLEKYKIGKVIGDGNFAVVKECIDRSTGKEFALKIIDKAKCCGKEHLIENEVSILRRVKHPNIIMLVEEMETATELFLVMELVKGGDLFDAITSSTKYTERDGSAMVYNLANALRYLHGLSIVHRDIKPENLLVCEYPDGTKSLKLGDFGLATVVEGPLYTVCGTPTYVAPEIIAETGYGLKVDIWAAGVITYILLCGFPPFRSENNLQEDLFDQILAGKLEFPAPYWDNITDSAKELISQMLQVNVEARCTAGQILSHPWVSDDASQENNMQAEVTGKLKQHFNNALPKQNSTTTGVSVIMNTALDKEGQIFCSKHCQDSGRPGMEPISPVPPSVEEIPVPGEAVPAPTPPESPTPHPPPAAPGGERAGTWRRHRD
# [4] = target: Mitogen-activated protein kinase kinase kinase 5 (Homo sapiens) (UniProt Q99683); conditions: Compound concentration 1000.0 nM
# [5] = target: Phosphatidylinositol 5-phosphate 4-kinase type-2 gamma (Homo sapiens) (UniProt Q8TBX8); conditions: Compound concentration 1000.0 nM
# Sequence of Phosphatidylinositol 5-phosphate 4-kinase type-2 gamma (Homo sapiens) (Q8TBX8 whole entry): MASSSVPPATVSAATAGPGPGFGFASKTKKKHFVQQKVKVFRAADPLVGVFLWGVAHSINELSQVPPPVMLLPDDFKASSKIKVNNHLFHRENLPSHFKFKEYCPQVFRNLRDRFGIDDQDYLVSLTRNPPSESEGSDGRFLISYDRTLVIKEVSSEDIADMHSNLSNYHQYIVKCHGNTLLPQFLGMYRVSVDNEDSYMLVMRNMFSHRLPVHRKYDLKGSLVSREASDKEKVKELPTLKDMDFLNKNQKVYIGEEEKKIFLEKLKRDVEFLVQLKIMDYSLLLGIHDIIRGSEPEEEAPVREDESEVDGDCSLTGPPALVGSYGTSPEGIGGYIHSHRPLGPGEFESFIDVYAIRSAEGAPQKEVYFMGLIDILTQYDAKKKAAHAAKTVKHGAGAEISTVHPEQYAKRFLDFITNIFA
# [6] = target: Serine/threonine-protein kinase 4 (Homo sapiens) (UniProt Q13043); conditions: Compound concentration 1000.0 nM
# D(4) dopamine receptor = D(4) dopamine receptor (Homo sapiens, UniProt P21917); assay: GPCRScan assay: inhibition of D4; design: radioligand conc. used [nm] 0.6 – 1.7, parental cells Stable HEK
# [7] = target: 5-hydroxytryptamine receptor 1D (Homo sapiens) (UniProt P28221); conditions: Compound concentration 10.0 uM
# [8] = target: Mitogen-activated protein kinase 8 (Homo sapiens) (UniProt P45983); conditions: Compound concentration 1000.0 nM
# Sequence of Mitogen-activated protein kinase 8 (Homo sapiens) (P45983 whole entry): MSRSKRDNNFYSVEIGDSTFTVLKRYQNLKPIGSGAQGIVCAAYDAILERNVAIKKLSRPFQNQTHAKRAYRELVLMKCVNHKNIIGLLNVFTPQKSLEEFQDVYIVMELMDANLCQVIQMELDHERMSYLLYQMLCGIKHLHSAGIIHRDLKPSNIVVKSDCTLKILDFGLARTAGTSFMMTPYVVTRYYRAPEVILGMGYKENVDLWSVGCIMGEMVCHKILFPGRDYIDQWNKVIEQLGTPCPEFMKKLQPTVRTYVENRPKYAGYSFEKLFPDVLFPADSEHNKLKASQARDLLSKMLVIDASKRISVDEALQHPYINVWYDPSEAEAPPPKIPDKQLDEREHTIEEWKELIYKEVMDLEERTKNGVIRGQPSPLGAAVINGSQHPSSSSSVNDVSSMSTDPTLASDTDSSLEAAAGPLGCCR
# [9] = target: Alpha-1B adrenergic receptor (Homo sapiens, UniProt P35368); assay: GPCRScan assay: inhibition of Alpha1B; design: radioligand conc. used [nm] 0.3 – 1.0, parental cells stable HEK
# [10] = target: Tyrosine-protein kinase FRK (Homo sapiens) (UniProt P42685); conditions: Compound concentration 1000.0 nM
# Sequence of Tyrosine-protein kinase FRK (Homo sapiens) (P42685 whole entry): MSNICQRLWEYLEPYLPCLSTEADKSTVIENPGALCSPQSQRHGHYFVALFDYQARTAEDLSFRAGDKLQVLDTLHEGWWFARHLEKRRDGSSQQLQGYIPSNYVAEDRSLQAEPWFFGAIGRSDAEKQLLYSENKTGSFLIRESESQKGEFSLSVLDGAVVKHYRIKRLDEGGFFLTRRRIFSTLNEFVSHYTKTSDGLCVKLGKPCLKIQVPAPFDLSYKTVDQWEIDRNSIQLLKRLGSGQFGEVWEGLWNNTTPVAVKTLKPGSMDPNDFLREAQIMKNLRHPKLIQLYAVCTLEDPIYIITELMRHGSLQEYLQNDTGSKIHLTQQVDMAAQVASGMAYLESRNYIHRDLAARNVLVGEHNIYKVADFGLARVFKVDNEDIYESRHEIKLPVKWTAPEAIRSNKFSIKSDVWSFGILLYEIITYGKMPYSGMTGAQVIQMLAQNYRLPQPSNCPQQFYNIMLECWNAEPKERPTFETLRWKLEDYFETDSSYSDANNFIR
# [11] = target: Mast/stem cell growth factor receptor Kit (Homo sapiens) (UniProt P10721); conditions: Compound concentration 1000.0 nM
# [12] = target: BDNF/NT-3 growth factors receptor (Homo sapiens) (UniProt Q16620); conditions: Compound concentration 1000.0 nM
# [13] = target: Serine/threonine-protein kinase WNK2 (Homo sapiens) (UniProt Q9Y3S1); conditions: Compound concentration 1000.0 nM
# [14] = target: Cyclin-dependent kinase-like 2 (Homo sapiens) (UniProt Q92772); conditions: Compound concentration 1000.0 nM
# [15] = target: Phosphorylase b kinase regulatory subunit alpha, liver isoform (Homo sapiens) (UniProt P46019); conditions: Compound concentration 1000.0 nM
# [16] = target: Serine/threonine-protein kinase Nek3 (Homo sapiens) (UniProt P51956); conditions: Compound concentration 1000.0 nM
# Sequence of Serine/threonine-protein kinase Nek3 (Homo sapiens) (P51956 whole entry): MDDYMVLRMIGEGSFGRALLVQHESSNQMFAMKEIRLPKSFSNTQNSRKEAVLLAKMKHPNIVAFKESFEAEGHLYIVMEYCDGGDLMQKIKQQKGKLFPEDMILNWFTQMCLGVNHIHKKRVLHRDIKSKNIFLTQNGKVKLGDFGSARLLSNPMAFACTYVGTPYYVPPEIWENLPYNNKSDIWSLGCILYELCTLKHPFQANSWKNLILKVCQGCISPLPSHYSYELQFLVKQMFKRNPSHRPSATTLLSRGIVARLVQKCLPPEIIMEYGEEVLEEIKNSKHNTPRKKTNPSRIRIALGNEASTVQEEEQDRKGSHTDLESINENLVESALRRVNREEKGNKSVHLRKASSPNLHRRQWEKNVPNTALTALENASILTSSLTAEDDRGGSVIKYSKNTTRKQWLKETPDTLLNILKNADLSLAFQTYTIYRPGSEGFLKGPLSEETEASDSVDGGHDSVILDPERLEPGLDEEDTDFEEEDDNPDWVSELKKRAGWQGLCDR
# [17] = target: NT-3 growth factor receptor (Homo sapiens) (UniProt Q16288); conditions: Compound concentration 1000.0 nM
# [18] = target: Serine/threonine-protein kinase 16 (Homo sapiens) (UniProt O75716); conditions: Compound concentration 1000.0 nM
# Sequence of Serine/threonine-protein kinase 16 (Homo sapiens) (O75716 whole entry): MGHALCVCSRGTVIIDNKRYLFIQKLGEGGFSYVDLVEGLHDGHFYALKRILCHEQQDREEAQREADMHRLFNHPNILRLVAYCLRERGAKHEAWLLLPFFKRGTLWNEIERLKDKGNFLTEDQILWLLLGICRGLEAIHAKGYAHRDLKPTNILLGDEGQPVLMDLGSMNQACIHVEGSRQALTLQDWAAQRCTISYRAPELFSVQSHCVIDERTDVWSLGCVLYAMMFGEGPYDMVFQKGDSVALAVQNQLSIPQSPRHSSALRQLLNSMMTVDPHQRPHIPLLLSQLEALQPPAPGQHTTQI
# [19] = target: Serine/threonine-protein kinase Nek1 (Homo sapiens) (UniProt Q96PY6); conditions: Compound concentration 1000.0 nM
# Sequence of Serine/threonine-protein kinase Nek1 (Homo sapiens) (Q96PY6 whole entry): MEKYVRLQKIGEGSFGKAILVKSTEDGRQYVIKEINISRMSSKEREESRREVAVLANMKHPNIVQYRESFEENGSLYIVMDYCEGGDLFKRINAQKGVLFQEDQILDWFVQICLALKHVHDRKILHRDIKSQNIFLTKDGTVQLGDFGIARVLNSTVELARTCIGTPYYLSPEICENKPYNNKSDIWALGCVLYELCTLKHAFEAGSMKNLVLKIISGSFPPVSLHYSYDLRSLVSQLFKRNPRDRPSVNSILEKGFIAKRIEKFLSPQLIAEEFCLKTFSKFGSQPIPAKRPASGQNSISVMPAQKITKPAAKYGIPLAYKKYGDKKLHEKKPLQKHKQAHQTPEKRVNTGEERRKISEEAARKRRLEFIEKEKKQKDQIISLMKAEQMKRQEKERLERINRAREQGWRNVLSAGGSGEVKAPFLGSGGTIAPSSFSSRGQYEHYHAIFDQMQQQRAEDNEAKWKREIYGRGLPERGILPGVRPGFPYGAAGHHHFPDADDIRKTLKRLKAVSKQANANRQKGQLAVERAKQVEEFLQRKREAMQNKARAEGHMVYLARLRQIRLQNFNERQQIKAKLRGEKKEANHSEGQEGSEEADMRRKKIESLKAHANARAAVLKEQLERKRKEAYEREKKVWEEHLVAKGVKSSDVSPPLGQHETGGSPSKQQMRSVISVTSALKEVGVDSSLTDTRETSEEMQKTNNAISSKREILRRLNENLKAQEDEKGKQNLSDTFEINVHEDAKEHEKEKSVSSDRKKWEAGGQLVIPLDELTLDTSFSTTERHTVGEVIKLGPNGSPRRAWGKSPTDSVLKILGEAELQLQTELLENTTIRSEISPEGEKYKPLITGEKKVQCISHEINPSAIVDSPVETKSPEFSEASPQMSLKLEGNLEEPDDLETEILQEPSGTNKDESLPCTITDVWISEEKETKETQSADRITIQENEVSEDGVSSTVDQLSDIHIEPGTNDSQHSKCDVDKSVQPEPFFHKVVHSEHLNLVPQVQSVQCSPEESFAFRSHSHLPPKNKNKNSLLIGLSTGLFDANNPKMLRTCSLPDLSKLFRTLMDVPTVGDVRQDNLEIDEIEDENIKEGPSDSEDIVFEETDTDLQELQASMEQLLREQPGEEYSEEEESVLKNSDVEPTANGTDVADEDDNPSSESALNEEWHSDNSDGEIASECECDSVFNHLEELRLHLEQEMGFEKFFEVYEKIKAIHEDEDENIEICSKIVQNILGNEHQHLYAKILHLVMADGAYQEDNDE
# [20] = target: Sodium-dependent serotonin transporter (Homo sapiens, UniProt P31645); assay: Serotonin-uptake assay
# [21] = target: Muscarinic acetylcholine receptor M2 (Homo sapiens) (UniProt P08172); conditions: Compound concentration 10.0 uM
# [22] = target: T1, Sodium-dependent dopamine transporter (Homo sapiens, UniProt Q01959); assay: GPCRScan assay: inhibition of DAT; design: radioligand conc. used [nm] 3.6 – 16.0, parental cells stable HEK
# T1 sequence (Q01959 whole entry): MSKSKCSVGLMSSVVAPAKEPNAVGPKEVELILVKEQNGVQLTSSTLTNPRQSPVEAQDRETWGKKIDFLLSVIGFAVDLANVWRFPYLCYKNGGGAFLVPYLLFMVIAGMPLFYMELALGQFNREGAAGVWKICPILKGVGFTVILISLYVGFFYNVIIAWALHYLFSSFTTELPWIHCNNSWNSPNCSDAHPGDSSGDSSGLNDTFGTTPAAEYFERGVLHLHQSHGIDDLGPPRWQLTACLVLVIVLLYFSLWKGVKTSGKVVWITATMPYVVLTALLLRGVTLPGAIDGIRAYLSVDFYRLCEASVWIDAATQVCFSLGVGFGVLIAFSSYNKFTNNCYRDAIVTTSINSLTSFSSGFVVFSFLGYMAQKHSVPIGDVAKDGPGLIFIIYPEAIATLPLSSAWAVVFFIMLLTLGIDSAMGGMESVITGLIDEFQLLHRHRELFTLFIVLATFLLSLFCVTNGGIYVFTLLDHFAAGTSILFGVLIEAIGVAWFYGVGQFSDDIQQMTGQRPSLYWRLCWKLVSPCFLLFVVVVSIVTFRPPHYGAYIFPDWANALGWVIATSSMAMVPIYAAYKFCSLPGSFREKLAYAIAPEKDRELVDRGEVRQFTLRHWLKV
# Histamine H2 receptor = Histamine H2 receptor (Homo sapiens, UniProt P25021); assay: GPCRScan assay: inhibition of H2; design: radioligand conc. used [nm] 0.02 – 0.05, parental cells Stable HEK
# [23] = target: Alpha-1D adrenergic receptor (Homo sapiens) (UniProt P25100); conditions: Compound concentration 10.0 uM
# [24] = target: Beta-3 adrenergic receptor (Homo sapiens) (UniProt P13945); conditions: Compound concentration 10.0 uM
# [25] = target: Alpha-1B adrenergic receptor (Homo sapiens) (UniProt P35368); conditions: Compound concentration 10.0 uM
# [26] = target: Sodium-dependent noradrenaline transporter (Homo sapiens, UniProt P23975); assay: GPCRScan assay: inhibition of NET; design: radioligand conc. used [nm] 1.3 – 5.0, parental cells stable HEK
# [27] = target: 5-hydroxytryptamine receptor 1E (Homo sapiens) (UniProt P28566); conditions: Compound concentration 10.0 uM
# [28] = target: Muscarinic acetylcholine receptor M1 (Homo sapiens) (UniProt P11229); conditions: Compound concentration 10.0 uM
# [29] = target: T1, Sodium-dependent dopamine transporter; assay: Dopamine-uptake assay
# [30] = target: Beta-2 adrenergic receptor (Homo sapiens) (UniProt P07550); conditions: Compound concentration 10.0 uM
# [31] = target: Alpha-1A adrenergic receptor (Homo sapiens) (UniProt P35348); conditions: Compound concentration 10.0 uM
SMILES,residual activity [3],residual activity [4],residual activity [5],residual activity [6],residual activity [8],residual activity [10],residual activity [11],residual activity [12],residual activity [13],residual activity [14],residual activity [15],residual activity [16],residual activity [17],residual activity [18],residual activity [19],other results
COc1cc(-c2cn([C@H]3CCc4ccccc4N(CC(F)(F)F)C3=O)nn2)ccc1-n1ccc(C)n1,92%,100%,100%,100%,55%,100%,100%,93%,87%,91%,100%,100%,98%,100%,100%,Ki [1]: 5.07 µM; pKi [1]: 5.36; Ki [2]: 1.39 µM; Ki (D(4) dopamine receptor): 4.95 µM; inhibition [7]: 11.3%; Ki [9]: 10 µM
COc1cc(-c2cn([C@H]3CCc4c(F)cccc4N(CC(F)(F)F)C3=O)nn2)ccc1-n1cnc(C)c1,100%,100%,100%,100%,52%,100%,100%,92%,53%,67%,100%,86%,95%,100%,100%,IC50 [20]: 0.013 µM (active); inhibition [21]: 14.4%; Ki ([22]; read-out: Ki): 0.191 µM; Ki ([22]; read-out: pKi (converted)): 0.2 µM; Ki (Histamine H2 receptor): 0.975 µM; inhibition [23]: 2.11%; inhibition [24]: 15.8%; inhibition [25]: 19.9%; Ki [26]: 0.808 µM; inhibition [27]: -8.76%; inhibition [28]: 8.88%; IC50 [29]: 0.536 µM (active); inhibition [30]: -5.61%; inhibition [31]: 14.1%

# Source: ChEMBL document CHEMBL4507289, “Data for DCP probe GSM1” (2021)
